This note sets out measurements from patent publication US7247634B2, “Rifamycin derivatives effective against drug-resistant microbes” (Cumbre Pharmaceuticals Inc., priority 2004, dated 2007).

SMILES strings stand for the structures. In brackets after ≈: the same amount, converted by molar mass.

Format in all cases: cell-based
Assay [1] deals with Mycobacterium smegmatis ATCC700084. In words: MIC, microbroth dilution (NCCLS). The settings on record: Mycolicibacterium smegmatis, rifS strain, Middlebrook Broth plus ADC Enrichment, 37° C., read-out: Antimicrobial activity (MIC).
The subject of assay [2] is Staphylococcus aureus EN1252a gyrA^S84L grlA^S80F. In words: microbe, parasite or virus in culture. The settings on record: read-out: Antimicrobial activity (MIC). In short, it runs like this: (§1)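 Tested organisms were S. aureus ATCC 29213 rpoB mutants (D417Y, H418Y; rifampin-resistant) and double gyrase/topoisomerase IV mutant EN1252a (quinolone-resistant). Growth in cation-adjusted Mueller-Hinton broth at 37 °C; MIC by microbroth dilution per NCCLS guidelines.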

Assay [3] deals with Staphylococcus aureus ATCC29213 rpoB^D417Y. Description: microbe, parasite or virus in culture. The following applies: ATCC29213, read-out: Antimicrobial activity (MIC). The method, boiled down: as §1
The subject of assay [4] is Staphylococcus aureus ATCC29213 rpoB^H418Y. Description: microbe, parasite or virus in culture. The following applies: ATCC29213, read-out: Antimicrobial activity (MIC). In short, it runs like this: as §1
Assay [5] deals with Staphylococcus aureus ATCC29213. Description: MIC, microbroth dilution (NCCLS). The following applies: rifS strain, Cation-Adjusted Mueller-Hinton Broth, 37° C., read-out: Antimicrobial activity (MIC). On the technique in general: Broth dilution looks for growth in wells or tubes with falling amounts of substance.
The test system of assay [6] is Staphylococcus epidermidis ATCC12228. Description: MIC, microbroth dilution (NCCLS). The following applies: rifS strain, Cation-Adjusted Mueller-Hinton Broth, 37° C., read-out: Antimicrobial activity (MIC).
Assay [7] relates to Escherichia coli ATCC25922. Description: MIC, microbroth dilution (NCCLS). The following applies: rifS strain, Cation-Adjusted Mueller-Hinton Broth, 37° C., read-out: Antimicrobial activity (MIC).
The subject of assay [8] is Haemophilus influenzae ATCC10211. Description: MIC, microbroth dilution (NCCLS). The following applies: rifS strain, BHI Broth with NAD and hematin, 37° C., read-out: Antimicrobial activity (MIC).
The test system of assay [9] is Streptococcus pyogenes ATCC19615. In words: MIC, microbroth dilution (NCCLS). The following applies: rifS strain, THY Broth, 37° C., read-out: Antimicrobial activity (MIC).
The subject of assay [10] is Enterococcus faecalis ATCC29212. In words: MIC, microbroth dilution (NCCLS). The settings on record: rifS strain, BHI Broth, 37° C., read-out: Antimicrobial activity (MIC).
For assay [11], the system named is Streptococcus pneumoniae ATCC6303. Description: MIC, microbroth dilution (NCCLS). The following applies: rifS strain, THY Broth with 1 mg/mL catalase, 5% CO2, 37° C., read-out: Antimicrobial activity (MIC).

As to `COc1c(N2CCN(C3=C4NC(=O)/C(C)=C\C=C\[C@H](C)[C@H](O)[C@@H](C)[C@@H](O)[C@@H](C)[C@H](OC(C)=O)[C@H](C)[C@@H](OC)/C=C/O[C@@]5(C)Oc6c(C)c(O)c(c(c6C5=O)C3=O)C4=O)CC2)c(F)cc2c(=O)c(C(=O)O)cn(C3CC3)c12` [Example 26, 3-[4-(3-Carboxy-1-cyclopropyl-6-fluoro-8-methoxy-4-oxo-1,4-dihydroquinolin-7-yl)-piperazin-1-yl]rifamycin S], the MIC in [1] was in the range of 0.5 to 64 µg/mL; in [2], 0.004 to 0.5 µg/mL (≈ 0.00379 to 0.474 µM); in assay [3] it was 0.06 to 32 µg/mL (≈ 0.0569 to 30.3 µM); in assay [4] it was 0.06 to 16 µg/mL (≈ 0.0569 to 15.2 µM); in assay [5], 0.004 to 0.5 µg/mL (≈ 0.00379 to 0.474 µM); in assay [6] it was 0.008 to 0.063 µg/mL (≈ 0.00758 to 0.0597 µM). Besides, the MIC was in the range of 0.125 to 8 µg/mL (≈ 0.118 to 7.58 µM) in assay [7]; 0.125 to 2 µg/mL (≈ 0.118 to 1.9 µM) in assay [8]; 0.008 to 0.063 µg/mL (≈ 0.00758 to 0.0597 µM) in assay [9]; 2 to 32 µg/mL (≈ 1.9 to 30.3 µM) in assay [10]; 0.008 to 0.125 µg/mL (≈ 0.00758 to 0.118 µM) in [11].

On to `COc1c(N2CCN(C3CCN(C4=C5NC(=O)/C(C)=C\C=C\[C@H](C)[C@H](O)[C@@H](C)[C@@H](O)[C@@H](C)[C@H](OC(C)=O)[C@H](C)[C@@H](OC)/C=C/O[C@@]6(C)Oc7c(C)c(O)c(c(c7C6=O)C4=O)C5=O)CC3)CC2)c(F)cc2c(=O)c(C(=O)O)cn(C3CC3)c12` [Example 31, 3-{4-[1-(3-Carboxy-1-cyclopropyl-6-fluoro-8-methoxy-4-oxo-1,4-dihydroquinolin-7-yl)-piperazin-4-yl]-piperidin-1-yl}rifamycin S], for which the MIC in [1] was 0.5 to 64 µg/mL; in [2], 0.004 to 0.5 µg/mL (≈ 0.00351 to 0.439 µM); in assay [3] it was 0.06 to 32 µg/mL (≈ 0.0527 to 28.1 µM); in assay [4] it was 0.06 to 16 µg/mL (≈ 0.0527 to 14.1 µM); in assay [5], 0.004 to 0.5 µg/mL (≈ 0.00351 to 0.439 µM); in assay [6], 0.008 to 0.063 µg/mL (≈ 0.00703 to 0.0553 µM). Further, the MIC in assay [7] fell in the range of 0.125 to 8 µg/mL (≈ 0.11 to 7.03 µM); in assay [8], 0.125 to 2 µg/mL (≈ 0.11 to 1.76 µM); in assay [9], 0.008 to 0.063 µg/mL (≈ 0.00703 to 0.0553 µM); in assay [10], 2 to 32 µg/mL (≈ 1.76 to 28.1 µM); in assay [11], 0.008 to 0.125 µg/mL (≈ 0.00703 to 0.11 µM).

As for `COc1c(N2CC(NC3CCN(C4=C5NC(=O)/C(C)=C\C=C\[C@H](C)[C@H](O)[C@@H](C)[C@@H](O)[C@@H](C)[C@H](OC(C)=O)[C@H](C)[C@@H](OC)/C=C/O[C@@]6(C)Oc7c(C)c(O)c(c(c7C6=O)C4=O)C5=O)CC3)C2)c(F)cc2c(=O)c(C(=O)O)cn(C3CC3)c12` [Example 33, 3-{4-[1-(3-Carboxy-1-cyclopropyl-6-fluoro-8-methoxy-4-oxo-1,4-dihydroquinolin-7-yl)-azetidin-3-ylamino]-piperidin-1-yl}rifamycin S], the MIC lay in the range of 0.5 to 64 µg/mL in [1]; 0.004 to 0.5 µg/mL (≈ 0.00356 to 0.445 µM) in assay [2]; 0.06 to 32 µg/mL (≈ 0.0534 to 28.5 µM) in [3]; 0.06 to 16 µg/mL (≈ 0.0534 to 14.2 µM) in assay [4]; 0.004 to 0.5 µg/mL (≈ 0.00356 to 0.445 µM) in [5]; 0.008 to 0.063 µg/mL (≈ 0.00712 to 0.056 µM) in assay [6]. Moreover, the MIC is 0.125 to 8 µg/mL (≈ 0.111 to 7.12 µM) in assay [7]; 0.125 to 2 µg/mL (≈ 0.111 to 1.78 µM) in [8]; 0.008 to 0.063 µg/mL (≈ 0.00712 to 0.056 µM) in [9]; 2 to 32 µg/mL (≈ 1.78 to 28.5 µM) in [10]; 0.008 to 0.125 µg/mL (≈ 0.00712 to 0.111 µM) in assay [11].

Consider `COc1c(N2CC3CCCN(C4CCN(C5=C6NC(=O)/C(C)=C\C=C\[C@H](C)[C@H](O)[C@@H](C)[C@@H](O)[C@@H](C)[C@H](OC(C)=O)[C@H](C)[C@@H](OC)/C=C/O[C@@]7(C)Oc8c(C)c(O)c(c(c8C7=O)C5=O)C6=O)CC4)C3C2)c(F)cc2c(=O)c(C(=O)O)cn(C3CC3)c12` (some centres unmarked) [Example 35, 3-{4-[6-(3-Carboxy-1-cyclopropyl-6-fluoro-8-methoxy-4-oxo-1,4-dihydroquinolin-7-yl)-octahydro-pyrrolo[3,4-b]-pyrridin-1-yl]-piperidin-1-yl}rifamycin S], for which the MIC was 0.5 to 64 µg/mL in assay [1]; 0.004 to 0.5 µg/mL (≈ 0.00339 to 0.424 µM) in assay [2]; 0.06 to 32 µg/mL (≈ 0.0509 to 27.2 µM) in assay [3]; 0.06 to 16 µg/mL (≈ 0.0509 to 13.6 µM) in assay [4]; 0.004 to 0.5 µg/mL (≈ 0.00339 to 0.424 µM) in assay [5]; 0.008 to 0.063 µg/mL (≈ 0.00679 to 0.0535 µM) in [6]. Besides, the MIC is 0.125 to 8 µg/mL (≈ 0.106 to 6.79 µM) in assay [7]; 0.125 to 2 µg/mL (≈ 0.106 to 1.7 µM) in [8]; 0.008 to 0.063 µg/mL (≈ 0.00679 to 0.0535 µM) in assay [9]; 2 to 32 µg/mL (≈ 1.7 to 27.2 µM) in assay [10]; 0.008 to 0.125 µg/mL (≈ 0.00679 to 0.106 µM) in [11].
